Measurements published in ChEMBL document CHEMBL1201862, “PubChem BioAssay data set” (2004).
One block for each compound: values may come before it. Active and inactive are the calls of the source.

Tests used:
[1] = biological target: Alkaline phosphatase, placental type (Homo sapiens, UniProt P05187); test: human placental alkaline phosphatase inhibition – biochemical, luminescence, confirmation (AID 1512); type: functional
[2] = biological target: Glyceraldehyde-3-phosphate dehydrogenase (Homo sapiens, UniProt P04406)
[3] = biological target: Induced myeloid leukemia cell differentiation protein Mcl-1 (Homo sapiens, UniProt Q07820); type: functional
Chain of Induced myeloid leukemia cell differentiation protein Mcl-1 (Q07820 whole entry): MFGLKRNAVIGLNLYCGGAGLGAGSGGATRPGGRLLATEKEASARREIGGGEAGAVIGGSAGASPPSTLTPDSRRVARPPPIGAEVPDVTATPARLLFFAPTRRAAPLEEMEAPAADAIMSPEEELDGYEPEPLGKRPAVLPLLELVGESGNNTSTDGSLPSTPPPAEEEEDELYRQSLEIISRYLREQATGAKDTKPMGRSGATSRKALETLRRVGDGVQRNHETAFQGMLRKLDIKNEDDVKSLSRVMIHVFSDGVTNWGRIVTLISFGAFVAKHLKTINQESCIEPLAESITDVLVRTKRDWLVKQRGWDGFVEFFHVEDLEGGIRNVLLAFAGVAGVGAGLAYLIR

[4] = biological target: T1, Polyadenylate-binding protein 1 (Homo sapiens, UniProt P11940); test: MLLE binding blockers, Cy5 peptide tracer – biochemical, fluorescence polarization, Cy5-PAM2 peptide, secondary, miRNA deadenylation inhibitor project, dose response (AID 602260); type: functional; conditions: read-out: IC50_Mean
T1 sequence (P11940 whole entry): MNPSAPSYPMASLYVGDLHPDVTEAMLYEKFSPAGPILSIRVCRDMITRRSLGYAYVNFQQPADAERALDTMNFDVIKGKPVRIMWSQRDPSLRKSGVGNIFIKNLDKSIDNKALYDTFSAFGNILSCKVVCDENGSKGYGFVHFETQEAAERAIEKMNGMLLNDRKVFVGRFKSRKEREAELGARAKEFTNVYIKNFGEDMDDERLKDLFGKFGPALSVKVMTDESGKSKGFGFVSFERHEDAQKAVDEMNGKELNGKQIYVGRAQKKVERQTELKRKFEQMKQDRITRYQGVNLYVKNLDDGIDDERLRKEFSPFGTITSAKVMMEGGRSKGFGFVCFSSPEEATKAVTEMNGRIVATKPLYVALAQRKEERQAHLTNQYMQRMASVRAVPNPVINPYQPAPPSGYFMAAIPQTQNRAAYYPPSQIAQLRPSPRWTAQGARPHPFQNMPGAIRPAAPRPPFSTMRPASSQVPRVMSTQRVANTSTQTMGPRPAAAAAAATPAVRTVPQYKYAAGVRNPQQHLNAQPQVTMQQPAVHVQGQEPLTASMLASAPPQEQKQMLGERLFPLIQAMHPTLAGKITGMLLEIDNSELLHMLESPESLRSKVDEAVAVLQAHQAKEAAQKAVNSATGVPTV

[5] = biological target: T2, Tyrosine-protein phosphatase non-receptor type 7 (Homo sapiens, UniProt P35236); test: redox-active compounds inhibiting HePTP phosphatase – biochemical, fluorescence, mechanism study (AID 2068); type: functional
T2 sequence (P35236 whole entry): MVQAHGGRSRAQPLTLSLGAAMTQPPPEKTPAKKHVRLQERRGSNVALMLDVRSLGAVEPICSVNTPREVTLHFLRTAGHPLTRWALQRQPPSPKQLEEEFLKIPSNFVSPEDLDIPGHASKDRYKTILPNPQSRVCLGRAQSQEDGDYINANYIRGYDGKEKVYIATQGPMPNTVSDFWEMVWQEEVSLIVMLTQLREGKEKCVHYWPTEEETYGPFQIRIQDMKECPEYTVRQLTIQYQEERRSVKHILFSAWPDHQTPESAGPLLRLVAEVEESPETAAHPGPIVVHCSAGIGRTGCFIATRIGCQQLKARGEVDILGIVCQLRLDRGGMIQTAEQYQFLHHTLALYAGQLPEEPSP

Genome polyprotein = Genome polyprotein (dengue virus type 2, UniProt P29990); test: flavivirus cap methylation enzyme inhibition – biochemical, confirmation dose response, primary screen (AID 588689); type: functional
Chain of Genome polyprotein (P29990 2492-3391 limits assumed): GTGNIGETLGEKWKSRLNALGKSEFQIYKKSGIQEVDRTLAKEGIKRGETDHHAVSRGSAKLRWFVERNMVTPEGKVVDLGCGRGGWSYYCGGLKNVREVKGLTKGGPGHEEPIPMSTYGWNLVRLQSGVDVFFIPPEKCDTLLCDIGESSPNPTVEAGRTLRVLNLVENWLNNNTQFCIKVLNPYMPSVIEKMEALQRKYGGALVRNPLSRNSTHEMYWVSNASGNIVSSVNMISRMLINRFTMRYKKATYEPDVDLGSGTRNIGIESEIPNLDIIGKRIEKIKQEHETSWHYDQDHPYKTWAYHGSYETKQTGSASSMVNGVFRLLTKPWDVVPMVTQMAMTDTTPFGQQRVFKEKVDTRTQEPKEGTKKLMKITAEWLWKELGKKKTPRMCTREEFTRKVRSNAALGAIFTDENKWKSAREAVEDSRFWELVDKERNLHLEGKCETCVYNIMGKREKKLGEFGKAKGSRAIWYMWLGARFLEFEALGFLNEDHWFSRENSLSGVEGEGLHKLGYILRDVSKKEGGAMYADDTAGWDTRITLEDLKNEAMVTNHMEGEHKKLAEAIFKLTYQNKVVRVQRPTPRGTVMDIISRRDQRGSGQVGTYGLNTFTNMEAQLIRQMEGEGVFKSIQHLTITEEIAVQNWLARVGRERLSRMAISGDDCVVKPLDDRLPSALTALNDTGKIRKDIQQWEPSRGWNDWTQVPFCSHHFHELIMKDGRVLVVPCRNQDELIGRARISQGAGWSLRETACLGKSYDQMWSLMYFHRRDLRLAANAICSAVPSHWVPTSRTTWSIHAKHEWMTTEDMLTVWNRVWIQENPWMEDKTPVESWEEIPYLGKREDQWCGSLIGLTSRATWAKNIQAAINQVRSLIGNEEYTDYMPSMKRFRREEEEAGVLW

[6] = biological target: T1, Polyadenylate-binding protein 1; test: MLLE domain peptide-binding blockers, IC50 – biochemical, fluorescence polarization, FITC-PAM2 peptide, dose response (AID 602259); type: functional; conditions: read-out: IC50_Mean
T-cell = test: loss of vesicle association with mouse CD8+ T cells – mouse 2C CD8+ T cells, flow cytometry, dose response (AID 485284); type: functional
Phosphomannomutase 2 = Phosphomannomutase 2 (Homo sapiens, UniProt O15305); test: Counter screen SAR assay for PMM2 inhibitors via a fluorescence intensity assay. [Related pubchem assays (depositor defined):AID1545, AID1574]
Chain of Phosphomannomutase 2 (O15305 whole entry): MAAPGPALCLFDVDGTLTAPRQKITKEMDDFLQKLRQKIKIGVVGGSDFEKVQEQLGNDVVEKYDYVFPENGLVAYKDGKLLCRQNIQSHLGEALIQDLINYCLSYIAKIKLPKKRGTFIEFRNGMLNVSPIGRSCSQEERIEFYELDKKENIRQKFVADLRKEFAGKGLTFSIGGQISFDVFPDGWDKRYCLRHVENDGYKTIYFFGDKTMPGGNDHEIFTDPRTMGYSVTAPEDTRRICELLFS

[7] = biological target: Diphosphomevalonate decarboxylase (Streptococcus pneumoniae serotype 2 (strain D39 / NCTC 7466), UniProt Q9FD53); test: diphosphomevalonate decarboxylase inhibitor confirmation – biochemical, cuvette format, coupled NADH fluorescence (AID 1028); type: functional
Chain of Diphosphomevalonate decarboxylase (Q9FD53 whole entry): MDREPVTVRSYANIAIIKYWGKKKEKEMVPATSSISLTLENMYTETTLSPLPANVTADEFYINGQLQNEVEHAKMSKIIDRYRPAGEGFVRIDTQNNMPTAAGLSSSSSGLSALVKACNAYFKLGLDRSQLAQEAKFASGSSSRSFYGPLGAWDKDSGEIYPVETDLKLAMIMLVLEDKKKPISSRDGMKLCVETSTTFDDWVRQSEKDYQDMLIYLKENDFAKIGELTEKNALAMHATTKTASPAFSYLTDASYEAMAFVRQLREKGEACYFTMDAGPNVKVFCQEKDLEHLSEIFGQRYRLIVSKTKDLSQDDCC

[8] = biological target: Phosphoethanolamine/phosphocholine phosphatase (Homo sapiens, UniProt Q8TCT1); test: SAR assay for compounds that inhibit PHOSPHO1. [Related pubchem assays (depositor defined):AID1545, AID1565, AID1574]
Chain of Phosphoethanolamine/phosphocholine phosphatase (Q8TCT1 whole entry): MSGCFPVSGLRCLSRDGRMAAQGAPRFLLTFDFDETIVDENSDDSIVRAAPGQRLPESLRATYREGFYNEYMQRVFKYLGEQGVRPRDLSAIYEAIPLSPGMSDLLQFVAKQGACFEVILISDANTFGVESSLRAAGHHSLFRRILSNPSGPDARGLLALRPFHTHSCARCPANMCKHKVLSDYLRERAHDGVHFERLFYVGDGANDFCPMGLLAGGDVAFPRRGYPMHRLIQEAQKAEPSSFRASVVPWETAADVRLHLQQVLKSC

[9] = biological target: T3, Alkaline phosphatase, tissue-nonspecific isozyme (Homo sapiens, UniProt P05186); test: potency against alkaline phosphatase TNAP – biochemical, luminescent, dose response, SAR follow-up (AID 1056)
T3 sequence (P05186 whole entry): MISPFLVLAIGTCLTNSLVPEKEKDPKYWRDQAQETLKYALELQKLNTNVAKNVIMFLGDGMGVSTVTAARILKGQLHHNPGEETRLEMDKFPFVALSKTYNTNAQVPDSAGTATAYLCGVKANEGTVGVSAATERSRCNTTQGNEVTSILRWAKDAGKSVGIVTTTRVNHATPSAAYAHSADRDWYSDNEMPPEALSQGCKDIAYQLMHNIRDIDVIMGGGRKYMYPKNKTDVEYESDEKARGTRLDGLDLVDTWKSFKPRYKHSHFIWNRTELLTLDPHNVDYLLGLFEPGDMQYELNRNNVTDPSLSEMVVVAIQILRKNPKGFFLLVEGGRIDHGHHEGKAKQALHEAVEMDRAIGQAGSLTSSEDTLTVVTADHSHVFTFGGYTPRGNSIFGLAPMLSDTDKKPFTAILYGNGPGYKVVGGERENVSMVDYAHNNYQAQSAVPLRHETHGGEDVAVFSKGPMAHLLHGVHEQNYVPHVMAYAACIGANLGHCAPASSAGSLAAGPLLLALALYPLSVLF

[10] = biological target: Envelope glycoprotein gp160 (Human immunodeficiency virus 1, UniProt Q6QLK5); test: cell-free HIV fusion peptide-binding blockers – biochemical, uHTS, fluorescence dequenching, […] (AID 1986)
Chain of Envelope glycoprotein gp160 (Q6QLK5 whole entry, the tested form may be a part): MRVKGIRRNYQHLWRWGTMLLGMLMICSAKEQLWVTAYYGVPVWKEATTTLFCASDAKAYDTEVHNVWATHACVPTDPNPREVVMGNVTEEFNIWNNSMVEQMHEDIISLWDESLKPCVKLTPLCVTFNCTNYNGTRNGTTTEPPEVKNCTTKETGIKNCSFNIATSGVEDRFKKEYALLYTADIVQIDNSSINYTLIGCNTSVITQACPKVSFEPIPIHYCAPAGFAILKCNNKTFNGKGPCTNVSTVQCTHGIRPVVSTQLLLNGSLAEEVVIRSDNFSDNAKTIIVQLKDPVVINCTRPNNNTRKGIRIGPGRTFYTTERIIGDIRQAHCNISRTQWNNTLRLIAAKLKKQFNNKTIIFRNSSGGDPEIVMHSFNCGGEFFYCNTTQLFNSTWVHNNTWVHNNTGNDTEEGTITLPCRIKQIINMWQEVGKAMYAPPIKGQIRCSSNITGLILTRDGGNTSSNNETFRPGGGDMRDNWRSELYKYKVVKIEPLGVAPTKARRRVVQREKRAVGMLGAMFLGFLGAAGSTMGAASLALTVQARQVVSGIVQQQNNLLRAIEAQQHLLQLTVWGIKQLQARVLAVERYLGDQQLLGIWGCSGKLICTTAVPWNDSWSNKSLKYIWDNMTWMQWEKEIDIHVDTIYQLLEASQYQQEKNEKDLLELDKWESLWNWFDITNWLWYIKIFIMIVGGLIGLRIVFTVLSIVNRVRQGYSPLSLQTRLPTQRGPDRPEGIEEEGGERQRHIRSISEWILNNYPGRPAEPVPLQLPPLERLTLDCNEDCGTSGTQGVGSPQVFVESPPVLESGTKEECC

[11] = biological target: T4, Small ubiquitin-related modifier 2 (Homo sapiens, UniProt P61956); test: SUMO2 binding disruption by SUMO1 hits – biochemical, FRET, human SUMO2, uHTS hits, selectivity assay for SUMO1 interaction inhibitor project, dose response (AID 624384); type: functional; conditions: read-out: IC50_Mean
T4 sequence (P61956 whole entry): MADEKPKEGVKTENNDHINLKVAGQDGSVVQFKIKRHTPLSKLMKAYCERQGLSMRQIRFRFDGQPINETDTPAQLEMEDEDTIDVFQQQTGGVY

[12] = biological target: T4, Small ubiquitin-related modifier 2; test: disruption of SUMO2 interaction with SIM peptide – biochemical, fluorescence polarization, uHTS hits, selectivity assay for SUMO1 interaction inhibitor project, dose response (AID 624385); type: functional; conditions: read-out: IC50_Mean
[13] = biological target: T5, Small ubiquitin-related modifier 1 (Homo sapiens, UniProt P63165); test: SUMO1 protein-protein binding blockers, potency – biochemical, FRET, dose response (AID 624383); type: functional; conditions: read-out: IC50_Mean
T5 sequence (P63165 whole entry): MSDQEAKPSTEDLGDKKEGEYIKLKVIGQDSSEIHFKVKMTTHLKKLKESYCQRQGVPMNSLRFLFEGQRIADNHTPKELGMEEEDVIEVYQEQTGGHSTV

SUMO-activating enzyme [14] = biological target: T6, SUMO-activating enzyme (Homo sapiens, UniProt Q9UBT2); test: blockers of SAE1/SAE2–UBC9 SUMO transfer – biochemical, HTRF, uHTS, primary screen (AID 2006); type: protein-complex assay
T6 sequence (Q9UBE0 whole entry): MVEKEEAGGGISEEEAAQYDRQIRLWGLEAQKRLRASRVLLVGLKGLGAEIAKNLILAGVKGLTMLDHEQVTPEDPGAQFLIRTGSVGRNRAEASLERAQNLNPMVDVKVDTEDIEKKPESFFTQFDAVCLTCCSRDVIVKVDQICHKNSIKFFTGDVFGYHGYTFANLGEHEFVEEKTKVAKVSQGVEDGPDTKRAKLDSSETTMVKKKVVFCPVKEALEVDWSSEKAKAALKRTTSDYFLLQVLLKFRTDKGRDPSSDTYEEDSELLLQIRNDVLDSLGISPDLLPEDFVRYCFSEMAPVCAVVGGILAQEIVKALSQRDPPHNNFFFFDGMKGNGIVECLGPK
T6 sequence (Q9UBT2 whole entry): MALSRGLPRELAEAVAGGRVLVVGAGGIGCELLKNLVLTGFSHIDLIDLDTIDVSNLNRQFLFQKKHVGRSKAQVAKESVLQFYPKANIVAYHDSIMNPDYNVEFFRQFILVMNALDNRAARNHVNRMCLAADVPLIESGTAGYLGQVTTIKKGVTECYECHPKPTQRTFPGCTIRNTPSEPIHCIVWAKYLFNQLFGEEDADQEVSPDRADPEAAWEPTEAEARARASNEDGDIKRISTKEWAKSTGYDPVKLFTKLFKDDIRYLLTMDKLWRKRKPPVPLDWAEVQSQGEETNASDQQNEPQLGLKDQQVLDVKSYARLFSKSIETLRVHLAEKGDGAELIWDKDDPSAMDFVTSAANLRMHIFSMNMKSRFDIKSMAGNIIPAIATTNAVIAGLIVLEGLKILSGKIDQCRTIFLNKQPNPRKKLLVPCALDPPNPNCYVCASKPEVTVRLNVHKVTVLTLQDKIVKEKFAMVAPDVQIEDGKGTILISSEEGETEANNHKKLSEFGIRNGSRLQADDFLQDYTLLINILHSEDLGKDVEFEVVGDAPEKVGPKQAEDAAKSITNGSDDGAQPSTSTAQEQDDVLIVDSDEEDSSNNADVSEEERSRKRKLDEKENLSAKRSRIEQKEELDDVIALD

[15] = biological target: Eukaryotic translation initiation factor 4E (Mus musculus, UniProt P63073); test: blockers of eIF4G binding by eIF4E – biochemical, TR-FRET, dose response (AID 855); type: functional;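 further: potency for disrupting eIF4E binding to eIF4GI seen as loss of FRET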
Chain of Eukaryotic translation initiation factor 4E (P63073 whole entry): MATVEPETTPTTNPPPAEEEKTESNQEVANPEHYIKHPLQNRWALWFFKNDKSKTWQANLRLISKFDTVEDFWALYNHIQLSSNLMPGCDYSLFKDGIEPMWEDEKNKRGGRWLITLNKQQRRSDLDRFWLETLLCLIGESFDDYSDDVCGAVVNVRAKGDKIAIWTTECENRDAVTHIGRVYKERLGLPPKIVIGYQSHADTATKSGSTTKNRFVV

SUMO-activating enzyme [16] = biological target: T6, SUMO-activating enzyme; test: blockers of UBC9-mediated SUMO conjugation – biochemical, AlphaScreen, SUMOylation inhibitor project, confirmation (AID 2018); type: functional
[17] = biological target: T5, Small ubiquitin-related modifier 1; test: SUMO1 protein interaction blockers, potency – biochemical, fluorescence polarization, uHTS hits, dose response (AID 624382); type: functional; conditions: read-out: IC50_Mean

IC50 [1]: > 100 µM (inactive)
IC50 [2]: > 100 µM (not active)
Structure (SMILES): CN(C)C(=O)c1cc(-c2ccc(Cl)cc2Cl)n[nH]1

IC50 [3]: 3.09 µM (active)
IC50 [4]: > 66 µM (inactive)
IC50 [5]: 2.79 µM (active)
IC50 (Genome polyprotein): 73.9 µM (active)
IC50 [6]: > 66 µM (inactive)
Structure (SMILES): COc1ccc2nc(-c3ccco3)c(-c3ccco3)nc2c1

Structure (SMILES): COc1ccc(C2=CC(=O)CC(c3ccc(OC)cc3)C2)cc1 (stereo unspecified)
EC50 (T-cell): 4.09 µM (active)

Structure (SMILES): CN(C)C(=O)c1cccc(-n2sc3ccccc3c2=O)c1
IC50 (Phosphomannomutase 2): 76.4 µM (active)
IC50 [7]: 24.4 µM (active)
IC50 [8]: 0.139 µM (active)
IC50 [9]: > 100 µM (inactive)

Structure (SMILES): O=C(O)c1cccc2c1NC(c1cccc([N+](=O)[O-])c1)C1CC(Sc3ccccc3[N+](=O)[O-])C(Cl)C21 (stereo unspecified)
IC50 [10]: 12.5 µM (active)
IC50 [11]: 6.16 µM (active)
IC50 [12]: 6.5 µM (active)
IC50 [3]: 3.05 µM (active)
IC50 [13]: 36.6 µM (inactive)
IC50 (SUMO-activating enzyme [14]): 13.3 µM (active)
IC50 [15]: 50 µM (inactive)
IC50 (SUMO-activating enzyme [16]): 2.43 µM (active)
IC50 [17]: 6.45 µM (active)
